Test: antitumor properties (studies mentioned, no method described)
Details: qualitative statement compared with girolline; no test system, dose or model printed

Compound | propriétés antitumorales
NC[C@@H](Cl)[C@H](O)c1c[nH]c(N)n1 (racemic) [racémique thréo, amino-3 (amino-2 1H-imidazolyl-4)-1 chloro-2 propanol-1-(1RS,2RS)] | conserve les propriétés antitumorales remarquables de la girolline
NC[C@H](Cl)[C@H](O)c1c[nH]c(N)n1 (racemic) [racémique érythro] | totalement inactifs
